Here are results for seven compounds from ChEMBL document CHEMBL3526109 (Drug Metab Dispos, 2011).

Holding throughout (details): in vivo
The nature of data set [1]: Drug excretion in cynomolgus monkey urine treated with [14C]brivanib alaninate at 10 mg/kg, po administered as single dose via gavage by HPLC analysis. Type of data set: ADME, organism-based, Macaca fascicularis.
Data set [2] deals with Plasma. In words: Drug level in cynomolgus monkey plasma assessed as compound formation treated with [14C]brivanib alaninate at 10 mg/kg, po administered as single dose via gavage measured after 6 hrs by HPLC analysis. Type of data set: ADME, organism-based, Macaca fascicularis.
The test system of data set [3] is Plasma. In words: Drug level in cynomolgus monkey plasma assessed as compound formation treated with [14C]brivanib alaninate at 10 mg/kg, po administered as single dose via gavage measured after 12 hrs by HPLC analysis. In kind it is ADME, organism-based, Macaca fascicularis.
Data set [4] has as its system Plasma. The data set can be described thus: Drug level in Sprague-Dawley rat plasma assessed as compound formation treated with [14C]brivanib alaninate at 100 mg/kg, po administered as single dose via gavage measured after 2 hrs by HPLC analysis. In kind it is ADME, organism-based.
Data set [5] relates to Plasma. In words: Drug level in human plasma assessed as compound formation treated with [14C]brivanib alaninate at 800 mg, po administered as single dose via gavage measured after 2 hrs by HPLC analysis. In kind it is ADME, organism-based.
Data set [6] is described as follows: Drug excretion in Sprague-Dawley rat feces treated with [14C]brivanib alaninate at 100 mg/kg, po administered as single dose via gavage by HPLC analysis. In kind it is ADME, organism-based.
Data set [7] can be described thus: Drug excretion in bile duct-cannulated cynomolgus monkey bile treated with [14C]brivanib alaninate at 10 mg/kg, po administered as single dose via gavage by HPLC analysis. In kind it is ADME, organism-based, Macaca fascicularis.
In data set [8] the test system is Plasma. The data set can be described thus: Drug level in Sprague-Dawley rat plasma assessed as compound formation treated with [14C]brivanib alaninate at 100 mg/kg, po administered as single dose via gavage measured after 6 hrs by HPLC analysis. In kind it is ADME, organism-based.
The nature of data set [9]: Drug excretion in human urine treated with [14C]brivanib alaninate at 800 mg, po administered as single dose […] by HPLC analysis. Type of data set: ADME, organism-based.
For data set [10], the system named is Plasma. In words: Drug level in cynomolgus monkey plasma assessed as compound formation treated with [14C]brivanib alaninate at 10 mg/kg, po administered as single dose via gavage measured after 4 hrs by HPLC analysis. Type of data set: ADME, organism-based, Macaca fascicularis.
The test system of data set [11] is Plasma. The data set can be described thus: Drug level in Sprague-Dawley rat plasma assessed as compound formation treated with [14C]brivanib alaninate at 100 mg/kg, po administered as single dose via gavage measured after 1 hr by HPLC analysis. In kind it is ADME, organism-based.
Data set [12] concerns Plasma. In words: Drug level in cynomolgus monkey plasma assessed as compound formation treated with [14C]brivanib alaninate at 10 mg/kg, po administered as single dose via gavage measured after 1 hr by HPLC analysis. In kind it is ADME, organism-based, Macaca fascicularis.
The nature of data set [13]: Drug excretion in cynomolgus monkey feces treated with [14C]brivanib alaninate at 10 mg/kg, po administered as single dose via gavage by HPLC analysis. In kind it is ADME, organism-based, Macaca fascicularis.
The test system of data set [14] is Plasma. In words: Drug level in human plasma assessed as compound formation treated with [14C]brivanib alaninate at 800 mg, po administered as single dose via gavage measured after 12 hrs by HPLC analysis. Type of data set: ADME, organism-based.
The test system of data set [15] is Plasma. In words: Drug level in cynomolgus monkey plasma assessed as compound formation treated with [14C]brivanib alaninate at 10 mg/kg, po administered as single dose via gavage measured after 2 hrs by HPLC analysis. In kind it is ADME, organism-based, Macaca fascicularis.
For data set [16], the system named is Plasma. In words: Drug level in human plasma assessed as compound formation treated with [14C]brivanib alaninate at 800 mg, po administered as single dose via gavage measured after 4 hrs by HPLC analysis. In kind it is ADME, organism-based.
Data set [17] in a line: Drug excretion in human feces treated with [14C]brivanib alaninate at 800 mg, po administered as single dose […] by HPLC analysis. Type of data set: ADME, organism-based.
The nature of data set [18]: Drug excretion in bile duct-cannulated rat bile treated with [14C]brivanib alaninate at 100 mg/kg, po administered as single dose via gavage by HPLC analysis. In kind it is ADME, organism-based.
Data set [19] deals with Plasma. In words: Drug level in human plasma assessed as compound formation treated with [14C]brivanib alaninate at 800 mg, po administered as single dose via gavage measured after 8 hrs by HPLC analysis. Type of data set: ADME, organism-based.
For data set [20], the system named is Plasma. The data set can be described thus: Drug level in human plasma assessed as compound formation treated with [14C]brivanib alaninate at 800 mg, po administered as single dose via gavage measured after 1 hr by HPLC analysis. In kind it is ADME, organism-based.
Data set [21] deals with Cynomolgus monkey. The data set can be described thus: AUC (0 to 12 hrs) cynomolgus monkey plasma treated with [14C]brivanib alaninate at 10 mg/kg, po administered as single oral dose by HPLC analysis. Type of data set: ADME, organism-based, Macaca fascicularis.
In data set [22] the test system is Rattus norvegicus. The data set can be described thus: AUC (0 to 6 hrs) Sprague-Dawley rat plasma treated with [14C]brivanib alaninate at 100 mg/kg, po administered as single oral dose by HPLC analysis. Type of data set: ADME, organism-based.
Data set [23] deals with Homo sapiens. In words: Drug uptake in human plasma treated with [14C]brivanib alaninate assessed as AUC (0 to 12 hrs) of total radio activity at 800 mg, po administered as single oral dose by HPLC analysis. Type of data set: ADME, organism-based.
Data set [24] concerns Rattus norvegicus. The data set can be described thus: Drug uptake in Sprague-Dawley rat plasma treated with [14C]brivanib alaninate assessed as AUC (0 to 6 hrs) of total radio activity at 100 mg/kg, po administered as single oral dose by HPLC analysis. In kind it is ADME, organism-based.
A short description of data set [25]: Drug excretion in Sprague-Dawley rat urine treated with [14C]brivanib alaninate at 100 mg/kg, po administered as single dose via gavage by HPLC analysis. Type of data set: ADME, organism-based.
The subject of data set [26] is Cynomolgus monkey. The data set can be described thus: Drug uptake in cynomolgus monkey plasma treated with [14C]brivanib alaninate assessed as AUC (0 to 12 hrs) of total radio activity at 10 mg/kg, po administered as single oral dose by HPLC analysis. Type of data set: ADME, organism-based, Macaca fascicularis.
Data set [27] has as its system Homo sapiens. In words: AUC (0 to 12 hrs) human plasma treated with [14C]brivanib alaninate at 800 mg, po administered as single oral dose by HPLC analysis. In kind it is ADME, organism-based.
Data set [28] in a line: Drug level in Sprague-Dawley rat urine treated with [14C]brivanib alaninate at 100 mg/kg, po administered as single dose via gavage by mass spectrometry. Type of data set: ADME, organism-based.

Take `Cc1cc2c(F)c(Oc3ncnn4cc(O[C@@H]5O[C@H](C(=O)O)[C@@H](O)[C@H](O)[C@H]5O)c(C)c34)ccc2[nH]1`: the Compound recovery is given as 0.8% in data set [1]; “metabolite_not_detected” with Plasma [2]; “metabolite_not_detected” in the data set on Plasma [3]; 6.5% in the data set with Plasma [4]; 3% in the data set on Plasma [5]; “metabolite_not_detected” in [6]. Also, the Compound recovery result is “metabolite_not_detected” in data set [7]; 9.1% with Plasma [8]; 0.8% in data set [9]; “metabolite_not_detected” in the data set on Plasma [10]; 5.1% in the data set with Plasma [11]; “metabolite_not_detected” in the data set with Plasma [12]. Further, the Compound recovery result is given as “metabolite_not_detected” in data set [13]; 1.2% with Plasma [14]; “metabolite_not_detected” in the data set with Plasma [15]; “metabolite_not_detected” in the data set on Plasma [16]; “metabolite_not_detected” in [17]; 27.4% in data set [18]. Moreover, the Compound recovery was found to be 2% in the data set on Plasma [19] and 0.8% in the data set on Plasma [20].
Turning to `Cc1cc2c(F)c(Oc3ncnn4cc(OS(=O)(=O)O)c(C)c34)ccc2[nH]1`, the AUC in the data set on Cynomolgus monkey [21] worked out at 5622.3 ugequiv/l.hr; in the data set on Rattus norvegicus [22], 37494.4 ugequiv/l.hr; in the data set with Homo sapiens [27], 3835.4 ugequiv/l.hr. Further, the Compound recovery is reported as 0.7% in [1]; 9.1% in the data set on Plasma [2]; 5.7% in the data set with Plasma [3]; 26.8% with Plasma [4]; 6.7% with Plasma [5]; 2.7% in [25]. The Compound recovery in data set [6] is on record as 4.6%; in [7], 1.9%; in the data set on Plasma [8] it was 20.9%; in data set [9], “metabolite_not_detected”; in the data set with Plasma [10] it was 9.4%; in the data set with Plasma [11] it was 30.7%. The Compound recovery in the data set on Plasma [12] is listed as 2.9%; in data set [13] it was “metabolite_not_detected”; in the data set on Plasma [14], 8.9%; with Plasma [15], 5.9%; with Plasma [16], 4.4%; in data set [17], “metabolite_not_detected”. Besides, the results for the Compound recovery (in data set [18]; with Plasma [19]; with Plasma [20]) were 25.4%, 7.6% and 8.8%, respectively. Moreover, the “AUC metabolite/AUC radiolabel” value amounted to 5.8% with Homo sapiens [23], 26.8% in the data set on Rattus norvegicus [24] and 8.1% with Cynomolgus monkey [26].
Take `Cc1c(O)cn2ncnc(Oc3ccc4[nH]c(C(=O)O)cc4c3F)c12`: the Compound recovery entry in data set [1] is “metabolite_not_detected”; in [28], “metabolite_detected”; in data set [6], “metabolite_not_detected”; in [7], “metabolite_not_detected”; in data set [9], “metabolite_not_detected”; in [13], “metabolite_not_detected”. In addition, the Compound recovery result was “metabolite_not_detected” in data set [17] and 1.8% in [18].
On to `Cc1c(OS(=O)(=O)O)cn2ncnc(Oc3ccc4[nH]c(C(=O)O)cc4c3F)c12`, for which the results for the AUC in the data set on Cynomolgus monkey [21], with Rattus norvegicus [22] and with Homo sapiens [27] were 4597.3 ugequiv/l.hr, 29545.4 ugequiv/l.hr and 9668.9 ugequiv/l.hr, respectively. The Compound recovery in [1] was 0.3%; with Plasma [2] it was 9.1%; with Plasma [3], 12.5%; in the data set with Plasma [4], 22.1%; in the data set on Plasma [5], 11.3%; in data set [25], 5.1%. Also, the Compound recovery result is reported as “metabolite_not_detected” in data set [6]; 1.4% in [7]; 20% in the data set on Plasma [8]; 3.3% in [9]; 4.6% in the data set on Plasma [10]; 18.2% in the data set with Plasma [11]. Also, the Compound recovery in the data set with Plasma [12] is recorded as 3.3%; in [13] it was “metabolite_not_detected”; in the data set on Plasma [14], 24.3%; in the data set with Plasma [15], 3%; in the data set on Plasma [16], 20%; in data set [17] it was “metabolite_not_detected”. The figures for the Compound recovery (in [18]; in the data set on Plasma [19]; with Plasma [20]) were 4%, 23% and “metabolite_not_detected”, respectively. For the same compound, the “AUC metabolite/AUC radiolabel” value in the data set on Homo sapiens [23] came out at 14.7%; in the data set with Rattus norvegicus [24], 21.1%; in the data set with Cynomolgus monkey [26], 6.6%.
Turning to `Cc1c(O)cn2ncnc(Oc3ccc4[nH]c(CO)cc4c3F)c12`, the Compound recovery result is recorded as “metabolite_not_detected” in data set [1]; 0.4% in data set [25]; 1.5% in [6]; “metabolite_not_detected” in data set [7]; “metabolite_not_detected” in [9]; “metabolite_not_detected” in data set [13]. Also, the Compound recovery result in [17] and in data set [18] was “metabolite_not_detected” throughout.
In the case of `Cc1c(OS(=O)(=O)O)cn2ncnc(Oc3ccc4[nH]c(CO)cc4c3F)c12`, the Compound recovery result in data set [1] is listed as “metabolite_not_detected”; in [25], “metabolite_not_detected”; in data set [6], “metabolite_not_detected”; in data set [7] it was 0.4%; in data set [9], “metabolite_not_detected”; in [13], “metabolite_not_detected”. Moreover, the Compound recovery entry in data set [17] and in data set [18] was “metabolite_not_detected” in each case.
Regarding `Cc1cc2c(F)c(Oc3ncnn4cc(O)c(C)c34)ccc2[nH]1`, the Compound recovery entry in [1] is listed as “metabolite_not_detected”; in the data set with Plasma [2], “metabolite_not_detected”; in the data set on Plasma [3], “metabolite_not_detected”; in the data set on Plasma [4], 1.9%; in the data set on Plasma [5] it was “metabolite_not_detected”; in data set [6] it was 42.8%. The Compound recovery in data set [7] was 0.4%; in the data set on Plasma [8], 1.7%; in data set [9], “metabolite_not_detected”; in the data set with Plasma [10] it was “metabolite_not_detected”; in the data set with Plasma [11], 2.4%; in the data set on Plasma [12], “metabolite_not_detected”. In addition, the Compound recovery in [13] was 1.8%; in the data set on Plasma [14], “metabolite_not_detected”; with Plasma [15], “metabolite_not_detected”; in the data set with Plasma [16], “metabolite_not_detected”; in data set [17], “metabolite_not_detected”; in data set [18] it was 10.8%. Moreover, the Compound recovery result in the data set on Plasma [19] and with Plasma [20] was “metabolite_not_detected” throughout.
